Laboratory results reported in PubChem BioAssay (NCI).
Values joined by “and” are separate entries in the source; they are usually repeats but may differ in a detail not shown here. Identical values can stand only once.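 Step 1: Grow cells in 96-well plates. Step 2: Expose to compound for 48 hours at 5 concentrations. Step 3: Interpolate endpoints linearly; if unreached, use highest concentration. GI50 is the concentration that inhibits growth by half. TGI: total growth inhibition.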

Tests used:
Assay in all cases: inhibition of tumour cell growth, NCI panel, 48 h
A549 NSCLC = system: A549 NSCLC
HCT-116 colon = system: HCT-116 colon
HOP-62 NSCLC = system: HOP-62 NSCLC
HOP-92 NSCLC = system: HOP-92 NSCLC
HS 578T breast = system: HS 578T breast
K-562 leukemia = system: K-562 leukemia
M14 melanoma = system: M14 melanoma
OVCAR-8 ovarian = system: OVCAR-8 ovarian
SF-268 CNS = system: SF-268 CNS
SN12C renal = system: SN12C renal

SMILES	GI50 (A549 NSCLC)	TGI (A549 NSCLC)	GI50 (HCT-116 colon)	TGI (HCT-116 colon)	GI50 (HOP-62 NSCLC)	TGI (HOP-62 NSCLC)	GI50 (HOP-92 NSCLC)	TGI (HOP-92 NSCLC)	GI50 (HS 578T breast)	TGI (HS 578T breast)	GI50 (K-562 leukemia)	TGI (K-562 leukemia)	GI50 (M14 melanoma)	TGI (M14 melanoma)	GI50 (OVCAR-8 ovarian)	TGI (OVCAR-8 ovarian)	GI50 (SF-268 CNS)	TGI (SF-268 CNS)	GI50 (SN12C renal)	TGI (SN12C renal)
O=C(NCCCO)c1cc(Cl)ccc1O	3.24 µM	14 µM	1.75 µM	10.5 µM	3.86 µM	13.4 µM	0.468 µM	3.37 µM	3.98 µM	21.4 µM	0.901 µM	18.4 µM	3.85 µM	15.7 µM	2.38 µM	13 µM	6.52 µM	20.2 µM	1.89 µM	11.7 µM
Oc1ccc(-c2nc3ccccc3s2)cc1CN(Cc1ccccn1)Cc1ccccn1	0.833 µM	18.5 µM	0.59 µM	14 µM	0.34 µM	32.1 µM	4.19 µM	36.7 µM	4.66 µM	39.4 µM	0.674 µM	35.5 µM	0.548 µM	4.6 µM	0.52 µM	13.4 µM	1 µM	16 µM	1.7 µM	14.4 µM
Cc1nnc(-c2cccc(-c3ccc(C(=O)NCC4CC4)cc3)c2)o1	> 25 µM	> 25 µM	> 25 µM	> 25 µM	> 25 µM	> 25 µM	> 25 µM	> 25 µM	> 25 µM	> 25 µM	> 25 µM	> 25 µM	> 25 µM	> 25 µM	> 25 µM	> 25 µM	> 25 µM	> 25 µM	> 25 µM	> 25 µM
CC(C)=CCC/C(C)=C/CC/C(C)=C/CSc1ccccc1C(=O)O	28.9 µM	> 89.4 µM and 43.3 µM	–	56.7 µM and 30.4 µM	–	35.2 µM and 30.6 µM	19.3 µM	57.1 µM and 59.7 µM	33 µM	> 100 µM and 44.5 µM	26.2 µM	> 100 µM	25.6 µM	> 95 µM and 40.6 µM	23.9 µM	> 65.5 µM and 36.6 µM	18.5 µM	35.7 µM and 32.6 µM	–	56.4 µM and 51.9 µM
COc1cc(-c2cc(O)c(-c3ccc4ccccc4n3)c(=O)[nH]2)cc(OC)c1OC	–	> 95 µM	–	62.2 µM	–	> 90.4 µM	–	> 81.6 µM	–	> 100 µM	–	> 32.1 µM	–	> 95.2 µM	–	> 54.9 µM	–	> 80.5 µM	–	> 100 µM
C[As](C)SCC(COC(=O)C(Cl)c1ccccc1)OC(=O)C(Cl)c1ccccc1 (centres undefined)	3.84 µM	15.2 µM	0.439 µM	2.67 µM	6.66 µM	21.6 µM	0.381 µM	3.9 µM	3.4 µM	46.5 µM	0.147 µM	–	0.614 µM	15.7 µM	3.41 µM	> 35.2 µM	3.3 µM	14.9 µM	2.48 µM	10.9 µM
Nc1c(C(=O)Nc2cccc(F)c2)sc2nc3c(cc12)C(=O)CCC3	0.378 µM	> 100 µM	0.447 µM	> 100 µM	0.685 µM	> 100 µM	0.589 µM	> 100 µM	0.634 µM	> 100 µM	0.16 µM	> 75 µM	0.397 µM	> 100 µM	31.1 µM	> 100 µM	37 µM	> 100 µM	0.743 µM	> 100 µM
Cn1cnc([N+](=O)[O-])c1Sc1nc(N)nc2c1ncn2C1CC(O)C(CO)O1 (centres undefined)	–	> 100 µM	–	> 100 µM	–	> 100 µM	–	> 100 µM	–	> 100 µM	–	> 100 µM	–	> 58.6 µM	–	> 100 µM	–	> 100 µM	–	> 100 µM
CC(=O)OC(C)(C)/C(C)=C/C(=O)O[C@H]1C(=O)O[C@@H]2C[C@H]3[C@H](C)C(=O)C(O[C@@H]4O[C@H](CO)[C@@H](O)[C@H](O)[C@H]4O)=C[C@]3(C)[C@H]3[C@@H](O)[C@H](O)[C@@]4(C(=O)O)OC[C@]32[C@@H]14	> 100 µM	> 100 µM	37.5 µM	> 100 µM	69.1 µM	> 100 µM	65.7 µM	> 100 µM	> 100 µM	> 100 µM	39.5 µM	> 100 µM	> 100 µM	> 100 µM	> 100 µM	> 100 µM	> 100 µM	> 100 µM	> 100 µM	> 100 µM
Cc1csc(/C=C/C(=O)c2nnn(-c3ccnc4c(C(F)(F)F)cccc34)c2C)c1	39.7 µM	> 100 µM	39.9 µM	> 100 µM	> 100 µM	> 100 µM	90.2 µM	> 100 µM	> 100 µM	> 100 µM	23 µM	> 100 µM	> 100 µM	> 100 µM	> 100 µM	> 100 µM	25.8 µM	> 100 µM	25 µM	> 100 µM
CCC(=C/[C@H](C)C/C=C/C(C)=C/[C@@H](C)C(=O)[C@@H](C)[C@H](O)[C@@H](C)CC)/C=C/[C@@H]1OC(=O)C=C[C@H]1C	< 0.01 µM	1.86 µM	< 0.01 µM	< 0.01 µM	< 0.01 µM	< 0.01 µM	< 0.01 µM	< 0.01 µM	< 0.01 µM	1.95 µM	< 0.01 µM	1.07 µM	< 0.01 µM	0.0103 µM	< 0.01 µM	1.41 µM	< 0.01 µM	–	< 0.01 µM	1.41 µM
Cc1nc(-c2cn3c(n2)-c2ccc(-c4cnn(C(C)(C)C(N)=O)c4)cc2OCC3)n(C(C)C)n1	0.332 µM and 0.392 µM	16.8 µM and > 10 µM	1.2 µM and 0.399 µM	23.4 µM and > 10 µM	0.726 µM and 4.51 µM	60.4 µM and > 10 µM	0.0211 µM and 0.0253 µM	–	0.147 µM and 0.169 µM	13 µM and > 10 µM	8.86 µM	> 75.7 µM	3.24 µM and 3.57 µM	26 µM and > 10 µM	3.38 µM and 5.87 µM	75.9 µM and > 10 µM	3.7 µM and 2.29 µM	> 100 µM	1.54 µM and 1.04 µM	> 100 µM
O=C1C=CC(=Nc2cc(Br)c(O)c(Br)c2)C=C1	42.6 µM	> 100 µM	11.5 µM	26.3 µM	28.4 µM	76.1 µM	39.6 µM	> 100 µM	32.1 µM	> 100 µM	5.83 µM	> 100 µM	23.9 µM	> 100 µM	14.9 µM	> 100 µM	24.6 µM	> 100 µM	25.6 µM	84.1 µM
